Assay [1] has as its system C33A cervical carcinoma cells. In words: Cellular ATP level (ViaLight) cell viability assay. The class given is cell-based. To be noted: 0.5 μM, 72 hours after treatment. An excerpt: (§1) Selected cell lines include C33A cervical carcinoma cells, Mrc-5 normal lung fibroblasts, PC-3 human prostatic carcinoma cell line, OVCAR-3 human ovarian carcinoma cell line, H460 non-small cell lung cancer cell line, A549 human lung carcinoma cell line, H1299 human non-small cell lung cancer cells, MCF-7 human breast cancer cell line, SW-480 human adenocarcinoma cell line, B16-F1 mouse melanoma cell line (American Type Culture Collection, Manassas, Va., USA), HMEC normal mammary epithelial cells (Clonetics San Diego, Calif., USA) and ADR-RES human breast cancer cell line (NCI, MD, USA), which are cultured in the media recommended by the American Type Culture Collection. The cell lines are plated in 96-well microliter plates (PerkinElmer Life Sciences Inc., Boston, Mass., USA) at a confluency that allows them to reach confluence after 4 days of growth. One day after plating, the cells are treated with various concentrations of biomodulator. Stock solutions of the biomodulator are prepared in dimethyl sulfoxide (Sigma-Aldrich Inc., St. Louis, Mo., USA), diluted in the recommended media and then added to the cells. The total dimethyl sulfoxide on the cells is 1%. After 3 days of incubation the ATP levels in the cells are quantified using a luminescent ViaLight detection system (Bio-Whittaker, MD, USA). […]

Assay [2] deals with H1299 human non-small cell lung cancer cells. Description: Cellular ATP level (ViaLight) cell viability assay. The class given is cell-based. To be noted: 0.5 μM, 72 hours after treatment.
Source text: as §1

Assay [3] relates to ten different cancer cell lines. In words: Cellular ATP level (ViaLight) assay, panel of cancer cell lines. In kind it is cell-based. To be noted: various concentrations.
Source text: as §1

Assay [4] deals with murine colonic tumor, colon 26. In words: Treatment of colon 26 tumors in mice. In kind it is in vivo, CDF1 mice. To be noted: 1 mg in 1 ml on days 7, 11 and 15, under the skin of the back and into tail vein; palpation. The method, then: Treatment of tumors in mice. A pharmaceutical composition of biomodulator 3-indolyl-acetic acid, or 6-furfurylaminopurine are prepared at 10 mg in 10 ml of physiological saline. 10 mg of a murine colonic tumor, colon 26, is inoculated under the skin of the back of CDF1 mice (day 0). After one week, the tumor is measured to calculate the volume of the tumor and the mice are classified into several groups (each group: n=5). On days 7, 11 and 15, the tumor-inoculated mice are bolusly injected under the skin of their backs and into their tail veins with 1 mg of the biomodulator in a volume of 1 ml. Control and comparative groups of mice are similarly injected with saline. Complete regression of the colonic tumor is determined by palpation. Subjects in which the tumor […] by palpation on the 60th day are deemed to have their tumors cured completely.

The subject of assay [5] is fibroblasts in human skin. To be noted: cited from earlier work.
The test system of assay [6] is human myeloid leukaemia cells. To be noted: cited from earlier work.
Another assay has as its system white cells. To be noted: in vitro; cited from earlier work.
For assay [7], the system named is C2C12 muscle stem cells. Description: C2C12 muscle stem cell culture with immunocytochemistry (Pax7, MyoD, Ki67, MHC). To be noted: for number of stem cells in culture: FIG. 2, TIBA at low to mid-level concentrations (range tested 0.0001-0.1 μg/ml). The class given is cell-based. The method, then:
(§2) Reagents: The auxin 2,4-Dichlorophenoxyacetic acid, and auxin antagonist, TIBA (2,3,5-triiodobenzoic acid), are purchased from Sigma-Aldrich (St. Louis, Mo.), After dissolving, these compounds are stored at −20° C. Concentrations used are 0.0001, 0.001, 0.01 and 0.1 μg/ml.
C2C12 muscle stem cells are used. Cells from low-passage frozen stocks are seeded in a 10 cm culture dish. After reaching 60% confluence, cells are passaged into an 8-well chamber slide (BD Biosciences, CA, USA). C2C12 cells are seeded on an 8-well chamber slide (3.5×10^3 cells/well). On day 3 after exposure to biomodulator or control, cells are fixed for immunocytochemistry (ICC) of MyoD and Ki67. For MHC and Pax7 immunostaining, cell culture media is replaced from the growth media (GM) to the differentiation media (DM) to induce terminal differentiation at day 5, and then cells are fixed for ICC of MHC and Pax7 at day 8. Media change and compound administration are performed daily.
For ICC, cells are fixed with 4% paraformaldehyde (PFA)/PBS for 20 min at ambient temperature. After being washed with PBS, cells are soaked in 0.1% Triton-X/PBS for 15 min at RT and blocked with 5% normal goat serum (NGS)/PBS to inhibit non-specific binding of antibodies for 60 min at ambient temperature. Primary antibodies are applied, and cells are incubated overnight at 4° C. The primary antibodies are anti-Pax7 mouse monoclonal (Developmental Studies Hybridoma Bank (DSHB), IA), anti-MyoD mouse monoclonal (DSHB), anti-Myosin Heavy Chain mouse monoclonal (MF20; DSHB) and anti-Ki67 rabbit polyclonal (Thermo Fisher Scientific, CA) antibodies.

The subject of assay [8] is C2C12 muscle stem cells. Description: WST-1 cell growth assay. In kind it is cell-based. To be noted: day 3; 0.001 μg/ml and 0.0001 μg/ml. As to the method:
as §2
Cell growth parameters are measured by WST assay. Cell proliferation reagent WST-1 is purchased from Roche (NJ). Assays are performed according to the manufacturer's protocol. Cells are seeded on a 96-well cell culture plate (1.5×10^3 cells/well), and absorbance (A450-A690) is measured at day 3.
(In general: Tetrazolium assays rely on reduction of a dye to a coloured formazan, in cell work by metabolically active cells.)

The test system of assay [9] is cardiac cells (myoblasts). To be noted: cited from earlier work.

Molecules are shown by their SMILES.

We go through six molecules from patent publication US9063122B2, “Biomodulators for treatment or prevention of disease” (priority 2008, dated 2015).

As to `O=C(O)Cc1c[nH]c2ccccc12` [3-indolyl-acetic acid], the “lowering of ATP levels compared with normal cell lines HMEC and MRC-5” value in assay [1] and in assay [2] was “significantly more effective at lowering ATP levels” throughout. The “decrease of cellular ATP levels compared with HMEC normal mammary epithelial cell line” value in [3] was “greater efficacy in decreasing cellular ATP levels”. Further, the tumor regression result in [4] is “produces tumor regression”.

Regarding `c1coc(CNc2ncnc3nc[nH]c23)c1` [6-furfurylaminopurine], in [4], the tumor regression result is “produces tumor regression”. The “life span of fibroblasts” value in assay [5] was “prolongs the life span of fibroblasts”. Further, the “granulocytic differentiation and apoptosis” value in [6] is “induction of granulocytic differentiation”.

As for `CC1=CC(=O)CC(C)(C)[C@@]1(O)/C=C/C(C)=C\C(=O)O` [ABA, Abscisic acid], in the assay on white cells, the “phagocytosis in white cells” value is recorded as “stimulation of phagocytosis”.

For `O=C(O)c1cc(I)cc(I)c1I` [TIBA, 2,3,5-triiodobenzoic acid], the “number of stem cells in culture” value in the assay with C2C12 muscle stem cells [7] was “reduces the number of stem cells”. Also, the myotube formation entry in the assay on C2C12 muscle stem cells [7] (FIG. 6, increased concentrations of TIBA) is “increased myotube formation”. Also, the “number of MyoD positive myoblasts” value in the assay on C2C12 muscle stem cells [7] (day 3) is “dose-dependent decrease”. Moreover, in the assay with C2C12 muscle stem cells [8], the “cell number, WST-1 cell growth assay” value was “increases cell number”.

As to `O=C(O)COc1ccc(Cl)cc1Cl` [auxin, 2,4-Dichlorophenoxyacetic acid], in the assay with C2C12 muscle stem cells [7], the “number of stem cells in culture” value was “opposite that of TIBA”. For the same molecule, the global cell proliferation result with C2C12 muscle stem cells [7] (FIG. 4, high Auxin concentrations) is “reduced”. The myotube formation result in the assay on C2C12 muscle stem cells [7] (FIG. 5, low auxin concentration) is on record as “increase”; in the assay with C2C12 muscle stem cells [7] (FIG. 5, mid to high auxin concentration (0.01 μg/ml)), “reduced”.

For the molecule `c1nc2nc(Nc3ccc(N4CCOCC4)cc3)nc(NC3CCCCC3)c2[nH]1` [reversine], in assay [9], the de-differentiation of cells result was “de-differentiate into osteoblasts and adipocytes”.
